# Reference: patent publication US20120010161A1, “NOVEL AZAPEPTIDE OR AZAPEPTIDOMIMETIC COMPOUNDS INHIBITING BCRP AND/OR P-GP” (CENTRE NATIONAL DE LA RECHERCHE SCIENTIFIQUE, priority 2009, published 2012)
# Legend:
# MRP1/ABCC1 = molecular target: T1, MRP1/ABCC1 (Homo sapiens, UniProt P33527); experiment: Flow cytometry: daunorubicin efflux induced by ABCC1 in transfected BHK21 cells; type: cell-based; details: probe daunorubicin (1 μM), 10 μM compound, read-out: MRP1/ABCC1 % efficacy 10 μM
# T1 construct: His; expressed in transfected cells; host or cells: BHK21 (newborn hamster kidney) transfected with pNUT-MRP/His
# T1 sequence (P33527 whole entry): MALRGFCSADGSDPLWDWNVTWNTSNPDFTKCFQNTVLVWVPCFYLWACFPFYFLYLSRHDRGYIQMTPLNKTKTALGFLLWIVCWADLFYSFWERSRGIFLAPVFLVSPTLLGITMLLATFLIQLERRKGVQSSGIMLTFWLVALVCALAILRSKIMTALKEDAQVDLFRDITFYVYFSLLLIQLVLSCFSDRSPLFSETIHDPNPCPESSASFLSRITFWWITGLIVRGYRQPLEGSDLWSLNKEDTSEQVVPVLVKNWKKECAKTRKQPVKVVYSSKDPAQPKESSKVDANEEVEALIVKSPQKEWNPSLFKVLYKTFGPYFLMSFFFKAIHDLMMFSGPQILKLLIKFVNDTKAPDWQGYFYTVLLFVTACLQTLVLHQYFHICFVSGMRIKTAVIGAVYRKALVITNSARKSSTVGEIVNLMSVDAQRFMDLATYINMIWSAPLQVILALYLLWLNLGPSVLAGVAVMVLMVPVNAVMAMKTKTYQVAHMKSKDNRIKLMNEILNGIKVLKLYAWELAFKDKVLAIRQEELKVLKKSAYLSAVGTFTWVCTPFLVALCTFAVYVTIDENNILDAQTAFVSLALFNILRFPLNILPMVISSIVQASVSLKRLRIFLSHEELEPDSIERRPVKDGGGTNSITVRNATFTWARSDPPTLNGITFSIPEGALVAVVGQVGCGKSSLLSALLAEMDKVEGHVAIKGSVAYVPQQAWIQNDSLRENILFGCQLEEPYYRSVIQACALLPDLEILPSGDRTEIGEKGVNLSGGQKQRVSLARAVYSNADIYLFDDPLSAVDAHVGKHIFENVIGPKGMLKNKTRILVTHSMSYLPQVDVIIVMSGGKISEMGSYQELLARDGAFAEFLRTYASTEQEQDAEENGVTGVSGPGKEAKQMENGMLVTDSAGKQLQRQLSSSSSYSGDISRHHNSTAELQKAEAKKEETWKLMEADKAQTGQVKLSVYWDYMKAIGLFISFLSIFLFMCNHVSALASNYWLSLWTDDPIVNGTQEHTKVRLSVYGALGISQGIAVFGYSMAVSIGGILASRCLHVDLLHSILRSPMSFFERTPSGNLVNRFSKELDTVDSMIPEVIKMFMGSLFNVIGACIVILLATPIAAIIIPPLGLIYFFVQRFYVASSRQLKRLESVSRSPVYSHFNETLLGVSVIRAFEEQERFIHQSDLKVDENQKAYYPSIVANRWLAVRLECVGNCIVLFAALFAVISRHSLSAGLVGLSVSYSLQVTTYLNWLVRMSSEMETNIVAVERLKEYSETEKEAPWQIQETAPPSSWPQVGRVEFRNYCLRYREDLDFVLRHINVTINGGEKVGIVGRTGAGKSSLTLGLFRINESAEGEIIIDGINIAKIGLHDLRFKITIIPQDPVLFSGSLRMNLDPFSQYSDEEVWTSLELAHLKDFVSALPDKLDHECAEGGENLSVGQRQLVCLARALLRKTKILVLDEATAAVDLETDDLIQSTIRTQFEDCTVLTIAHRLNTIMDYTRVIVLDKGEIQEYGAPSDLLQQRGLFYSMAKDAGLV
# Excerpt: Cell cultures. The human […] HEK-293 transfected with the vector pcDNA3.1 including or not the gene encoding ABCG2 (Robey, R. W., Honjo, Y., Morisaki, K., Nadjem, T. A., Runge, S., Risbood, M., Poruchynsky, M. S., Bates, S. E. 2003, Br. J. Cancer 89(10) 1971-1978) was used to test the efficacy of the products on ABCG2. The newborn hamster kidney cell line BHK21 either natural (negative control) or transfected with the vector pNUT-MRP/His expressing the gene encoding ABCC1 (Chang, Xiu-Bao, Hou, Yue-Xian, Riordan, John R. 1997, J. Biol. Chem. 272(49) 30962-30968) was used to test the efficacy of the products on ABCC1. The cell line NIH3T3 natural or transfected with the vector pHaMDR1/A expressing ABCB1 (Cardarelli, Carol O., Aksentijevich, Ivan, Pastan, Ira, Gottesman, Michael M. 1995 Cancer Res. 55 1086-1091) was used to test the efficacy of the compounds on ABCB1. […]
# FIG. 1 schematically illustrates an efflux of substrate induced by a typical ABC transporter. The substrates S, such as mitoxantrone effluxed with ABCG2 and ABCB1 or daunorubicin effluxed with ABCC1, are accumulated in the cells and expelled by the transporter T, leading to a decrease in intracellular fluorescence. In the case of accumulation of the product, typically by inhibition of the efflux protein, the intracellular fluorescence increases.
# Flow cytometry. […] The drug intracellular fluorescence is measured with a FACscan flow cytometer (Becton Dickinson, Mountain View, Calif.). The fluorescent substrates are excited at 488 nm; the fluorescence emission of mitoxantrone (MTX) is measured at 650 nm and that of daunorubicin is measured at 530 nm. […]
# in which: • FA corresponds to the intracellular level of substrate measured in the cells overexpressing the transporter T (corresponding to the lowest level of fluorescence in the absence of inhibitor), • FC corresponds to the fluorescence in the control cells not expressing the test transporter. […]
# HEK-293 cells = experiment: Cytotoxicity on cell growth, MTT test; type: cell-based, human; details: 72 hours; for harmlessness / toxicity on HEK-293 cells: cells expressing or not ABCG2
# Procedure: The cells are seeded (10 000 cells/well) in 96-well plates and incubated for 24 hours at 37° C. under 5% CO2. Varied concentrations of mitoxantrone (from 0 to 20 μM in a constant final volume of 100 μL) are then added with an equal volume of each of the test compounds. The cells are then left to divide for 72 hours. The cytotoxicity is evaluated colorimetrically with 3-(4,5-dimethylthiazol-2-yl)-2,5-diphenyltetrazolium bromide (MTT).
# Increasing concentrations of compound (IA.2) are applied to HEK-293 cells expressing or not expressing ABCG2, and whose residual vitality is evaluated after 72 hours of treatment by an MTT test. The results are illustrated in FIG. 4, in which the cells expressing ABCG2 are represented by empty circles, and those not expressing it by solid circles. […] This absence of toxicity is observed even at a very high concentration such as 40 μM, which corresponds to 40 times the IC50 value.
# (§1) Increasing concentrations of compound (IA.1) are applied to HEK-293 cells expressing or not expressing ABCG2, and whose residual vitality is evaluated after 72 hours of treatment by an MTT test. The results are illustrated in FIG. 6, in which the cells expressing ABCG2 are represented by empty circles, and those not expressing it by solid circles.
# as §1, with “(IB.1)” for “(IA.1)”, “8,” for “6,”, “circles” for “circles,”
# as §1, with “(IB.11)” for “(IA.1)”, “10,” for “6,”
SMILES,inhibition at 10 μM (MRP1/ABCC1) [%],harmlessness / toxicity on HEK-293 cells (HEK-293 cells),"cytotoxic effect on HEK-293 cells (HEK-293 cells; concentration range tested, more than 10 times its IC50, expressing or not ABCG2)","cytotoxic effect on HEK-293 cells (HEK-293 cells; concentration range tested, more than 80 times its IC50, expressing or not ABCG2)",cytotoxicity on HEK-293 cells (HEK-293 cells; at 40 times the IC50),"cytotoxic effect on HEK-293 cells (HEK-293 cells; up to 20 times its IC50, expressing or not ABCG2)","cytotoxicity on HEK-293 cells (HEK-293 cells; up to 40 μM (40 times the IC50), expressing or not ABCG2)"
"CC(C)(C)OC(=O)NN(C(=O)N[C@@H](CCCCNC(=O)OCc1ccccc1)C(=O)OC(C)(C)C)c1ccccc1C(=O)OCc1ccccc1 [IA.1, tert-Butyl ester of (2S)-6-(benzyloxycarbonylamino)-2-[1-(2′-(benzyloxycarbonyl)phenyl)-2-(tert-butoxycarbonyl)hydrazino-carbonylamino]hexanoic acid]",14 ± 3,harmlessness,no cytotoxic effect,–,–,–,–
"CC(C)(C)OC(=O)N[C@H](CNN(CCCCCCNC(=O)OCc1ccccc1)C(=O)OCc1ccccc1)CC(=O)OCc1ccccc1 [IB.11, Benzyl ester of (3S)-4-[2-benzyloxycarbonyl-2-(6-benzyloxycarbonylaminohexyl)hydrazino]-3-tert-butoxycarbonyl-aminobutyric acid]",–,harmlessness,–,no cytotoxic effect,–,–,–
"CC(C)(C)OC(=O)N[C@H](CNN(CCCCCCNC(=O)OCc1ccccc1)C(=O)OC(C)(C)C)CC(=O)OCc1ccccc1 [IB.1, Benzyl ester of (3S)-4-[2-(6-benzyloxycarbonylaminohexyl)-2-tert-butoxycarbonylhydrazino]-3-tert-butoxycarbonylaminobutyric acid]",5 ± 1,harmlessness,–,–,relative cytotoxicity,no cytotoxic effect,–
"CC(C)(C)OC(=O)NN(C(=O)N[C@@H](CCCCNC(=O)OCc1ccccc1)C(=O)OC(C)(C)C)c1cccc(C(=O)OCc2ccccc2)c1 [IA.2, tert-Butyl ester of (2S)-6-(benzyloxycarbonylamino)-2-[1-(3′-(benzyloxycarbonyl)phenyl)-2-(tert-butoxycarbonyl)hydrazino-carbonylamino]hexanoic acid]",5 ± 1,harmlessness,–,–,–,–,absolutely not cytotoxic
